Measurements published in US12679878B2, “CRF2 receptor agonists and their use in therapy” (SANOFI, priority 2020, dated 2026).
Read-outs that look alike come from different tables or passages of the source. Starred links: 1 amine or outer side, 2 acyl side, 3 side chain; linkers in the order of their positions; H or OH if unused. Non-standard residues stand in square brackets, D forms with d. Residues, ends and D or L forms follow the SMILES beside them. Groups on a side chain read outwards from the residue. No end group written: not given here. *: point of attachment. C18 diacid = O=C(O)CCCCCCCCCCCCCCCCC(=O)*; γGlu = O=C(O)[C@H](CCC(=O)[*:2])N[*:1]; Palmitoyl = CCCCCCCCCCCCCCCC(=O)*; AEEA = NCCOCCOCC(=O)O; Aib = CC(C)(N)C(=O)O

Columns and labels:
[1] = target: T1, human CRF2α receptor (Homo sapiens, UniProt Q13324); test: cAMP agonism at human CRF2 α receptor in TeloHEAC cells (Example 7); format: cell-based; settings: cAMP HTRF, TeloHEAC cells stably expressing human CRF2 α
T1 construct: expressed in transfected cells; host or cells: TeloHEAC
T1 sequence (Q13324 1-411): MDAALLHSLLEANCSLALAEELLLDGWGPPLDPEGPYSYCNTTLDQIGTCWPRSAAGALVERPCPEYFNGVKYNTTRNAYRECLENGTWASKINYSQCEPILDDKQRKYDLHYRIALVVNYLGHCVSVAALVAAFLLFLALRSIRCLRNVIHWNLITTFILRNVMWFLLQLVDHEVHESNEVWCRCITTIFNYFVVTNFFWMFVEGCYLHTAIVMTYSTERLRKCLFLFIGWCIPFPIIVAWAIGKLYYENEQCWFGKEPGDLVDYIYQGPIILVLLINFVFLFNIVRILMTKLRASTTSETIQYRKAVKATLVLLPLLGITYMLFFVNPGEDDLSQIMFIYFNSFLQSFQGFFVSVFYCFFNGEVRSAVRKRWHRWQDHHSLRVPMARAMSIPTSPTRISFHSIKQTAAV
Outline: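 Thawed frozen stably transfected cells in HBSS/20 mM HEPES (0% or 0.1% HSA) plus 2 mM IBMX were exposed to compound at 2000 cells/well for 30 min at room temperature. Intracellular cAMP was read by HTRF (665/620 nm ratio) after 1 h lysis; EC50 was derived with 1000 nM urocortin 2 set as 100%.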

[2] = target: T2, CRF1R receptor (Homo sapiens, UniProt P34998); test: cAMP activity at anti-target CRF1R, CRF1R-overexpression CHO cell line (Example 9); format: cell-based; settings: CRF1R-overexpression CHO cell line
T2 construct: host or cells: CHO-K1 clone 2
T2 sequence (P34998 24-415): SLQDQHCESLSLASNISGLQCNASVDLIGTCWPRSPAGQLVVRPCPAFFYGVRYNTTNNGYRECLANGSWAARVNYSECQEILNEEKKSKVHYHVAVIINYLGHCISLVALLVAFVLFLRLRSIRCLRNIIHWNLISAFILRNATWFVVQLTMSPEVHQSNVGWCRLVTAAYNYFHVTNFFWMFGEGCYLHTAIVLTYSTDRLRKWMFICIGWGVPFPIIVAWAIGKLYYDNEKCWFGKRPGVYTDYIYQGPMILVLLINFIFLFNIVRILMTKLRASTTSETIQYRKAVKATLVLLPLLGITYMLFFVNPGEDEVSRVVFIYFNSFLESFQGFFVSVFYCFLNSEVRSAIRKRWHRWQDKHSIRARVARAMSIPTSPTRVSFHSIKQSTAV
Outline: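 Using thawed CRF1R-overexpressing CHO cells at 2000 per well, compound is applied for 30 min at RT in HBSS/HEPES buffer with IBMX. Cellular cAMP content is determined via HTRF, and percent activity is calculated against 1000 nM UCN2 defined as 100%.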

[3] = tested on: rat CRF2R α receptor; test: cAMP agonism at rat CRF2R α receptor in A7R5 rat aortic smooth muscle cells (Example 8); format: cell-based; settings: cAMP HTRF, A7R5 rat aortic smooth muscle cell line, 0% HSA
Outline: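 Potency (EC50) is the concentration reaching half-maximal activation, with responses scaled so that 1000 nM urocortin 2 equals 100%. Intracellular cAMP was quantified by homogeneous time-resolved fluorescence at 665/620 nm, 1 h after lysis-buffer reagents. Compound stimulation lasted 30 min at room temperature on 2000 IBMX-treated (2 mM) cells per well in HEPES-buffered HBSS.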

[4] = Solubility in buffer systems by UPLC-UV (Example 13); format: physicochemical; settings: pH 7.4, Solubility in Buffer C [mg/ml]
Outline: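 Quantitation used UV peak area from UPLC of the 1:10-diluted supernatant, set against a reference-compound standard curve with extinction coefficients adjusted for amino acid sequence.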

[5] = Pharmacokinetic properties in rats, i.v. or s.c. (Example 16); format: in vivo, SD rat; settings: male, plasma, Rat; for AUC(0-t) / Cmax / half-life: Sprague-Dawley (SD)
Method: The pharmacokinetic properties of exemplary peptides SEQ ID NO: 35 and SEQ ID NO: 24 were assessed in mice and rats.
The test compound was administered in a suitable buffer system (PBS buffer solution at pH 7.4, or DPBS solution) at concentrations of 0.05, 0.1, 0.5 or 1 mg/ml depending on the dose, species and administration volume. Female C57BI/6 mice and male SD rate were dosed 0.1 mg/kg or 0.3 mg/kg intravenously or subcutaneously. The animals were sacrificed, and blood samples were collected after 0.08, 0.25, 0.5, 1, 2, 4, 8, 24, 32, and 48 hours post-intravenous administration and 0.25, 0.5, 1, 2, 4, 8, 24, 32, and 48 hours post-subcutaneous administration, respectively. Plasma samples were analysed after protein precipitation via liquid chromatography mass spectrometry (LC/MS). Pharmacokinetic parameters and half-life were calculated using Phoenix-WinNonlin 8.1 using a non-compartmental model and linear trapezoidal interpolation calculation.

[6] = Chemical stability, purity loss by UPLC-UV after 28 days at 40° C. vs 5° C., pH 4.5 acetate buffer (Example 12); format: physicochemical; settings: 28 days 40° C. vs 5° C.; pH 4.5, 20 mM acetate buffer; 300 μM
Method: The chemical stability of the compounds was assessed by storing the compounds under various conditions and then determining the loss of purity by UPLC-UV.
Prior to measuring the chemical stability of a batch of test compound, the purity of the compound was determined through UPLC/MS. For stability testing the target concentration was 300 μM pure compound. Therefore, solutions from solid samples were prepared in a pH 4.5, 20 mM acetate buffer system with a concentration of 300 μM compound based on the previously determined % purity:
At the starting point, UPLC-UV was performed by injection of 2 μl of the undiluted sample. Aliquots were then stored for 28 days at temperatures of 5 and 40° C. […] Then 2 μl samples of the undiluted supernatant were analysed with UPLC-UV. The chemical stability was calculated by the equation: [(purity after 28 days at 5° C.)−(purity after 28 days at 40° C.)]/(purity after 28 days at 5° C.)]×100%. The purity was calculated as: [(peak area compound)/(total peak area)]×100%.

[7] = target: T3, CRF1R receptor (anti-target) (UniProt P34998 24-415, limits assumed); test: cell-based or functional assay
T3 sequence (looked up): T2 sequence (P34998 24-415)

[8] = target: human corticotropin-releasing factor 2α receptor (CRF2α receptor) (human), Q13324; test: cell-based or functional assay
[9] = target: human corticotropin-releasing factor 2α (CRF2α receptor) (human), Q13324; test: cell-based or functional assay
[10] = 0% HSA, read-out: EC50 [nM], 0% HSA

CC[C@H](C)[C@H](N)C(=O)N[C@H](C(=O)N[C@@H](CC(C)C)C(=O)N[C@@H](CO)C(=O)N[C@@H](CC(C)C)C(=O)N[C@@H](CC(=O)O)C(=O)N[C@@H](C(=O)N1CCC[C@H]1C(=O)N[C@H](C(=O)N[C@@H](CCCCN)C(=O)N[C@@H](CC(C)C)C(=O)N[C@@H](CCCCNC(=O)COCCOCCNC(=O)COCCOCCNC(=O)CC[C@H](NC(=O)CCCCCCCCCCCCCCCCC(=O)O)C(=O)O)C(=O)N[C@@H](CCC(N)=O)C(=O)N[C@@H](CCCCN)C(=O)N[C@@H](CC(C)C)C(=O)N[C@@H](CC(C)C)C(=O)N[C@@H](CCCCN)C(=O)N[C@@H](CCC(N)=O)C(=O)N[C@@H](CCC(=O)O)C(=O)N[C@@H](CCCNC(=N)N)C(=O)N[C@@H](CCC(N)=O)C(=O)N[C@@H](CCCNC(=N)N)C(=O)N[C@@H](CCCCN)C(=O)N[C@@H](CCC(=O)O)C(=O)N[C@@H](CCCNC(=N)N)C(=O)N[C@@H](CCC(=O)O)C(=O)N[C@@H](CCC(N)=O)C(=O)N[C@@H](C)C(=O)N[C@@H](CCC(=O)O)C(=O)N[C@@H](CCCCN)C(=O)N[C@@H](CC(N)=O)C(=O)N[C@@H](CCCCN)C(=O)N[C@@H](CCCNC(=N)N)C(=O)N[C@H](C(=O)N[C@@H](CC(C)C)C(=O)N[C@@H](CCC(=O)O)C(=O)N[C@@H](CCCNC(=N)N)C(=O)N[C@H](C(N)=O)C(C)C)[C@@H](C)CC)[C@@H](C)O)C(C)C)C(C)C [compound 24] (H-IVLSLD[dV]PTKLK([AEEA-AEEA-γGlu-C18 diacid])QKLLKQERQRKEREQAEKNKRILERV-NH2; N-terminus assumed)
EC50 [1, 10]: 6.95 nM
EC50 ([2]; 0% HSA): > 1000 nM
Emax ([2]; read-out: Emax (%)): 1.48%
EC50 [3]: 4.94 nM
solubility at 1 h [4]: > 10.1 mg/mL
clearance ([5]; SD, iv, 0.1 mg/kg i.v., read-out: CI (converted)): 0.43 mL/min/kg
bioavailability ([5]; SD, sc, 0.3 mg/kg s.c.): 24%
AUC(0-t) ([5]; iv, 0.1 mg/kg i.v.): 3790 ng·h/mL
Cmax ([5]; iv, 0.1 mg/kg i.v.): 1480 ng/mL
half-life ([5]; iv, 0.1 mg/kg i.v.): 4.81 h
AUC(0-t) ([5]; sc, 0.3 mg/kg s.c.): 2610 ng·h/mL
Cmax ([5]; sc, 0.3 mg/kg s.c.): 171 ng/mL
half-life ([5]; sc, 0.3 mg/kg s.c.): 5.51 h

CC[C@H](C)[C@H](N)C(=O)N[C@H](C(=O)N[C@@H](CC(C)C)C(=O)N[C@@H](CO)C(=O)N[C@@H](CC(C)C)C(=O)N[C@@H](CC(=O)O)C(=O)N[C@@H](C(=O)N1CCC[C@H]1C(=O)N[C@H](C(=O)N[C@@H](CCCCN)C(=O)N[C@@H](CC(C)C)C(=O)N[C@@H](CCCCNC(=O)COCCOCCNC(=O)COCCOCCNC(=O)CC[C@H](NC(=O)CCCCCCCCCCCCCCCCC(=O)O)C(=O)O)C(=O)N[C@@H](CCC(N)=O)C(=O)N[C@H](C(=O)N[C@@H](CC(C)C)C(=O)N[C@@H](CC(C)C)C(=O)N[C@@H](CCC(=O)O)C(=O)N[C@@H](CCC(N)=O)C(=O)N[C@@H](C)C(=O)N[C@@H](CCCNC(=N)N)C(=O)N[C@@H](CCC(N)=O)C(=O)N[C@@H](CCCCN)C(=O)NC(C)(C)C(=O)N[C@@H](CCC(N)=O)C(=O)N[C@@H](CCCNC(=N)N)C(=O)N[C@@H](C)C(=O)N[C@@H](CCC(N)=O)C(=O)N[C@@H](C)C(=O)N[C@@H](CCC(=O)O)C(=O)N[C@@H](CCCCN)C(=O)N[C@@H](CC(N)=O)C(=O)N[C@@H](CCCCN)C(=O)N[C@@H](CCCNC(=N)N)C(=O)N[C@H](C(=O)N[C@@H](CC(C)C)C(=O)N[C@@H](CCC(=O)O)C(=O)N[C@@H](CCCNC(=N)N)C(=O)N[C@H](C(N)=O)C(C)C)[C@@H](C)CC)[C@@H](C)CC)[C@@H](C)CC)C(C)C)C(C)C [compound 140] (H-IVLSLD[dV]PIKLK([AEEA-AEEA-γGlu-C18 diacid])QILLEQARQK[Aib]QRAQAEKNKRILERV-NH2; N-terminus assumed)
EC50 [1, 10]: 0.04 nM
EC50 ([1]; 0.1% HSA, read-out: EC50 [nM], 0.1% HSA): 1.27 nM
EC50 [3]: 0.1 nM
Relative purity loss [%] [6]: 4.30%

B1: peptide of SEQ ID NO: 220 (peptide)
peptide: IVLSLD[dV]PIGLK([γGlu-Palmitoyl])QILLKQERQKK[Aib]RQQAETNKRILERV-NH2
modifications: N-terminus assumed
SMILES: CCCCCCCCCCCCCCCC(=O)N[C@@H](CCC(=O)NCCCC[C@H](NC(=O)[C@H](CC(C)C)NC(=O)CNC(=O)[C@@H](NC(=O)[C@@H]1CCCN1C(=O)[C@H](NC(=O)[C@H](CC(=O)O)NC(=O)[C@H](CC(C)C)NC(=O)[C@H](CO)NC(=O)[C@H](CC(C)C)NC(=O)[C@@H](NC(=O)[C@@H](N)[C@@H](C)CC)C(C)C)C(C)C)[C@@H](C)CC)C(=O)N[C@@H](CCC(N)=O)C(=O)N[C@H](C(=O)N[C@@H](CC(C)C)C(=O)N[C@@H](CC(C)C)C(=O)N[C@@H](CCCCN)C(=O)N[C@@H](CCC(N)=O)C(=O)N[C@@H](CCC(=O)O)C(=O)N[C@@H](CCCNC(=N)N)C(=O)N[C@@H](CCC(N)=O)C(=O)N[C@@H](CCCCN)C(=O)N[C@@H](CCCCN)C(=O)NC(C)(C)C(=O)N[C@@H](CCCNC(=N)N)C(=O)N[C@@H](CCC(N)=O)C(=O)N[C@@H](CCC(N)=O)C(=O)N[C@@H](C)C(=O)N[C@@H](CCC(=O)O)C(=O)N[C@H](C(=O)N[C@@H](CC(N)=O)C(=O)N[C@@H](CCCCN)C(=O)N[C@@H](CCCNC(=N)N)C(=O)N[C@H](C(=O)N[C@@H](CC(C)C)C(=O)N[C@@H](CCC(=O)O)C(=O)N[C@@H](CCCNC(=N)N)C(=O)N[C@H](C(N)=O)C(C)C)[C@@H](C)CC)[C@@H](C)O)[C@@H](C)CC)C(=O)O
CRF1/CRF2 ratio (of EC50) [7]: 6
CRF1 EC50 (cAMP, HTRF) [7]: 8.91 nM
CRF2 EC50 (cAMP, HTRF) [8]: 1.48 nM
EC50 [nM], 0% HSA (cAMP, HTRF) [9]: 1.48 nM
